Laboratory results published in patent US11089783B2, “2-(het)aryl-substituted fused heterocycle derivatives as pesticides” (Bayer Aktiengesellschaft, priority 2017, dated 2021).

Columns and labels:
Format in all cases: in vivo
Lucilia cuprina = Lucilia cuprina test; conditions: 48 h, L1 larvae, after 2 days, read-out: efficacy (kill)
In short: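 About 20 L1 larvae of Lucilia cuprina placed on minced horsemeat containing compound (DMSO stock diluted in water to test concentration). Kill (%) scored after 2 days; 100% = all larvae dead, 0% = none dead.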

Musca domestica = Musca domestica test; conditions: 100 ppm, adult houseflies, after 2 days
Procedure: Solvent: dimethyl sulfoxide To produce a suitable active ingredient formulation, 10 mg of active ingredient are mixed with 0.5 ml of dimethyl sulfoxide, and the concentrate is diluted with water to the desired concentration. Vessels containing a sponge treated with sugar solution and the active ingredient formulation of the desired concentration are populated with 10 adult houseflies (Musca domestica). After 2 days, the kill in % is determined. 100% means that all of the flies have been killed; 0% means that none of the flies have been killed.

Meloidogyne incognita [1] = test: Meloidogyne incognita test (MELGIN); conditions: 20 ppm, 14 days (14 dat)
In short: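 Sand with lettuce seeds, M. incognita egg/larvae suspension and aqueous dilution of compound concentrate. Nematicidal efficacy scored from gall (root-knot) formation after 14 days or the desired time, as % relative to untreated control (100% = no galls; 0% = as control).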

Myzus persicae [2] = test: Myzus persicae oral test; conditions: 120 h, after 5 days, read-out: efficacy
In short: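 Compound solution in IPL41 insect medium with sugar was sealed under parafilm, through which a mixed population of green peach aphids fed. Mortality was scored after 5 days as % efficacy, with 100% meaning all aphids killed.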

Myzus persicae [3] = test: Myzus persicae spray test (MYZUPE), Chinese cabbage leaf discs
In short: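 Leaf discs of Chinese cabbage carrying all stages of green peach aphid were sprayed with compound formulated in solvent and diluted with water containing emulsifier at 1000 ppm. Percent efficacy (100% = all aphids dead) was scored after 5 days or after the desired time.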

Phaedon cochleariae [4] = test: Phaedon cochleariae spray test (PHAECO), Chinese cabbage leaf discs
In short: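 Chinese cabbage (Brassica pekinensis) leaf discs sprayed with compound in water with 1000 ppm emulsifier, then after drying infested with Phaedon cochleariae larvae. Efficacy (% larvae killed) scored after 7 days or the chosen interval.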

Aphis gossypii = Aphis gossypii spray test (APHIGO), cotton plants; conditions: 6 dat
In short: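 Cotton plants (Gossypium hirsutum) heavily infested with cotton aphids were sprayed with the active ingredient formulated in emulsifier-containing water (1000 ppm emulsifier), with ammonium salt or penetrant added at 1000 ppm where required. After the set time, percent kill was determined, where 100% means all aphids dead.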

Nilaparvata lugens = Nilaparvata lugens spray test (NILALU); conditions: 4 g/ha, 4 dat
Procedure: (§1) [table] To produce an appropriate active ingredient formulation, 1 part by weight of active ingredient is dissolved with the specified parts by weight of solvent and made up with water containing an emulsifier concentration of 1000 ppm until the desired concentration is attained. To produce further test concentrations, the mixture is diluted with emulsifier-containing water. If addition of ammonium salts or/and penetrants is required, these are each added to the preparation solution in a concentration of 1000 ppm. Rice plants (Oryza sativa) are sprayed with an active ingredient formulation of the desired concentration and then populated with larvae of the brown planthopper (Nilaparvata lugens). After the desired time, the efficacy in % is determined. 100% means that all planthoppers have been killed; 0% means that no planthoppers have been killed.

Tetranychus urticae = Tetranychus urticae spray test, OP-resistant (TETRUR); conditions: Tetranychus urticae, 144 h, TETRUR, 6 dat, read-out: % efficacy
Procedure: [table] To produce a suitable active ingredient formulation, 1 part by weight of active ingredient is dissolved with the specified parts by weight of solvent and made up to the desired concentration with water containing an emulsifier concentration of 1000 ppm. To produce further test concentrations, the formulation is diluted with emulsifier-containing water. Discs of bean leaves (Phaseolus vulgaris) infested with all stages of the greenhouse red spider mite (Tetranychus urticae) are sprayed with an active ingredient formulation of the desired concentration. After 6 days, the efficacy in % is determined. 100% means that all the spider mites have been killed; 0% means that no spider mites have been killed.

Phaedon cochleariae [5] = test: Phaedon cochleariae spray test (PHAECO S), cabbage leaves; conditions: Phaedon cochleariae, 168 h, 7 dat, read-out: % efficacy
Procedure: as §1, with “Cabbage leaves (Brassica oleracea)” for “Rice plants (Oryza sativa)”, “and” for “and then”, “mustard beetle (Phaedon cochleariae).” for “brown planthopper (Nilaparvata lugens).”, “kill” for “efficacy”, “beetle larvae” for “planthoppers”

Diabrotica balteata = Diabrotica balteata drench test (DIABBA); conditions: soil, 192 h, 8 dat, read-out: % efficacy
Procedure: [table] To produce an appropriate active ingredient formulation, 1 part by weight of active ingredient is mixed with the specified amounts of solvent and emulsifier and the concentrate is diluted to the desired concentration with water, it being necessary to take into account the volume of soil into which drenching is effected. It should be ensured that a concentration of 40 ppm of emulsifier in the soil is not exceeded. For production of further test concentrations, the mixture is diluted with water. 5 maize kernels in each case are sown into soil-filled pots (Zea mays) and, the next day, drenched with the active ingredient formulation of the desired concentration. After one day, about 25 L2 larvae of the banded cucumber beetle (Diabrotica balteata) were added. After 8 days, the efficacy in % is determined. 100% means that all 5 plants have germinated and grown; 0% means that no plant has emerged.

Meloidogyne incognita [6] = test: Meloidogyne incognita drench test (MELGIN D); conditions: soil, 504 h, 21 dat, read-out: % efficacy
Procedure: [table] To produce an appropriate active ingredient formulation, 1 part by weight of active ingredient is mixed with the specified amounts of solvent and emulsifier and the concentrate is diluted to the desired concentration with water, it being necessary to take into account the volume of soil into which drenching is effected. It should be ensured that a concentration of 20 ppm of emulsifier in the soil is not exceeded. For production of further test concentrations, the mixture is diluted with water. Pots filled with soil (loamy sand) are drenched with the active ingredient solution. An egg/larvae suspension of the southern root-knot nematode (Meloidogyne incognita) is added, and lettuce seeds are scattered over the soil surface and covered with quartz sand. The lettuce seeds germinate and the seedlings develop. The root-knots develop on the roots. After the desired time, the nematicidal effect is determined with reference to the root-knot formation in %. 100% means that no root-knots were found; 0% means that the number of root-knots on the treated plants corresponds to that on the untreated control.

Nezara viridula = Nezara viridula spray test (NEZARA / NEZAVI); conditions: Nezara viridula, 96 h, 4 g/ha, 4 dat, read-out: % efficacy
In short: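 Barley plants infested with Nezara viridula larvae were sprayed with active ingredient in solvent/emulsifier water (1000 ppm emulsifier; ammonium salt or penetrant at 1000 ppm if added). Efficacy scored as % mortality after the set time (100% = all bugs killed).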

Row | SMILES | pest or weed control at 100 ppm (Lucilia cuprina) [%] | efficacy (kill) (Musca domestica) [%] | efficacy (nematicidal, gall formation) (Meloidogyne incognita [1]) [%] | pest or weed control at 0.8 ppm (Myzus persicae [2]) [%] | % efficacy (Myzus persicae [3]; MYZUPE, 4 g/ha, 5 dat) [%] | pest or weed control at 100 g/ha (Myzus persicae [3]; Myzus persicae, foliar, 120 h, 100 g/ha, 5 days (5 dat), read-out: efficacy) [%] | efficacy (Phaedon cochleariae [4]; 100 g/ha, 7 days (7 dat)) [%] | % efficacy (Phaedon cochleariae [4]; PHAECO, 20 g/ha, 7 dat) [%] | % efficacy (Aphis gossypii; 0.8 ppm) [%] | % efficacy (Aphis gossypii; 4 ppm) [%] | % efficacy (Nilaparvata lugens) [%] | Emax at 20 g/ha (Tetranychus urticae; 20 g/ha) [%] | Emax at 100 g/ha (Tetranychus urticae; 100 g/ha) [%] | Emax at 4 ppm (Aphis gossypii; Aphis gossypii, 144 h, 4 ppm, read-out: % efficacy) [%] | Emax at 4 ppm (Phaedon cochleariae [5]; 4 ppm) [%] | Emax at 20 ppm (Phaedon cochleariae [5]; 20 ppm) [%] | Emax at 20 ppm (Diabrotica balteata) [%] | Emax at 1 ppm (Meloidogyne incognita [6]; 1 ppm) [%] | Emax at 2 ppm (Meloidogyne incognita [6]; 2 ppm) [%] | Emax at 4 g/ha (Nezara viridula) [%]
1 | CCS(=O)(=O)c1ccc(C(=O)NC)nc1-c1nc2cc(C(F)(F)C(F)(F)F)nnc2n1C [Example I-01] | 100 | 100 | 90 | 100 | 90 | 90 | 100 | 67 | 70 | 100 | 100 |  |  |  |  |  |  |  |  | 
2 | CCS(=O)(=O)c1ccc(NC(=O)NC)nc1-c1nc2cc(C(F)(F)F)nnc2n1C [reference compound] |  |  |  |  |  |  |  |  |  |  |  | 0 | 0 | 25 | 0 | 0 | 0 | 0 | 50 | 0
